Blank lines part the entries; values can stand above or below the compound they belong to. The source made the active and inactive calls.
Experiments:
[1] = target: T1, DNA repair protein RAD52 homolog (Homo sapiens, UniProt P43351); type: functional, biochemical
T1 sequence (P43351 whole entry): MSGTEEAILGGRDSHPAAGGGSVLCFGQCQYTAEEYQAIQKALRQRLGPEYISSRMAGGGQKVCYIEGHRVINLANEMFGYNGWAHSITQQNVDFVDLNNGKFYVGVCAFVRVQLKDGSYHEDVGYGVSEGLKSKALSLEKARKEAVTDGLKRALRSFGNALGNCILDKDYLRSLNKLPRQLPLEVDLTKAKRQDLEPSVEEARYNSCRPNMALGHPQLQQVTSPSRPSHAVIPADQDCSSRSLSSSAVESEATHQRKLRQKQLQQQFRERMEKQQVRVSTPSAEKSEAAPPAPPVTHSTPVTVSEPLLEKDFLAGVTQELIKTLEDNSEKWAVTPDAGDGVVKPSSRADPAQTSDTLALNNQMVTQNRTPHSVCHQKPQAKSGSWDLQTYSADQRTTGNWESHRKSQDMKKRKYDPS

[2] = target: DNA dC->dU-editing enzyme APOBEC-3A (Homo sapiens, UniProt P31941); assay: Dose Response confirmation of small molecule APOBEC3A DNA Deaminase Inhibitors via a fluorescence-based single-stranded DNA deaminase assay. [Related pubchem assays (depositor defined):AID493011, AID493024]; type: functional
[3] = MDA-MB-231 cell growth inhibition, dose response, cytotoxicity control for RAD54 inhibitor project, CellTiter-Glo luminescence, cherry-pick (AID 651692); type: functional, cell-based
[4] = target: DNA dC->dU-editing enzyme APOBEC-3G (Homo sapiens, UniProt Q9HC16); type: functional;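 also: Dose-response counterscreen measuring inhibition of APOBEC3G DNA deaminase activity, run while confirming APOBEC3A inhibitors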
[5] = target: T2, DNA repair and recombination protein RAD54-like (Homo sapiens, UniProt Q92698); assay: inhibitors of human RAD54 branch migration, confirmation, biochemical, fluorescence, cherry-picked samples, dose series (AID 651657); type: functional
T2 sequence (Q92698 whole entry): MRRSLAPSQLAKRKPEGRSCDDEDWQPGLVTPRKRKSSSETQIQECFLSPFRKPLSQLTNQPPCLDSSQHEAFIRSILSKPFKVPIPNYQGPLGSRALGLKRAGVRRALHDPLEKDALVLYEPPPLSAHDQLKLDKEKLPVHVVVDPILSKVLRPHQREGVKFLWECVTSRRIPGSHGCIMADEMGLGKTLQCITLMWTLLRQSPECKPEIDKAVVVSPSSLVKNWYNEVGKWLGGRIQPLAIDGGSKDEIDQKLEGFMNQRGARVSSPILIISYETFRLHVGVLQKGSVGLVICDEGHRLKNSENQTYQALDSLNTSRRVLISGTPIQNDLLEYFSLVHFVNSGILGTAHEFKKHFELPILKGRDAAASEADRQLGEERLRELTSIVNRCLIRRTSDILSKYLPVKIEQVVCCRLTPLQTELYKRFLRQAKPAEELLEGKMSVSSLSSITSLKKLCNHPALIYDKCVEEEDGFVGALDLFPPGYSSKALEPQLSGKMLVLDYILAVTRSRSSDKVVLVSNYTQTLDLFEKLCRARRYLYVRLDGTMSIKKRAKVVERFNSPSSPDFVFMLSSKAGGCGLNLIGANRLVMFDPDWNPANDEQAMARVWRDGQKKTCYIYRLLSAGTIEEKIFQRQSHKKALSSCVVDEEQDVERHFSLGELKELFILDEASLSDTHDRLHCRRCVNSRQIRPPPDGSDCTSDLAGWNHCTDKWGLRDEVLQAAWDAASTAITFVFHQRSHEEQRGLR

[6] = target: Ras and Rab interactor 1/Tyrosine-protein kinase ABL1 (Homo sapiens, UniProt P00519+Q13671); type: functional;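 also: biochemical TR-FRET dose-response test measuring inhibition of binding between Rin1 and Abl proteins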
[7] = target: Eukaryotic translation initiation factor 4E (Mus musculus, UniProt P63073); assay: eIF4E–eIF4G protein interaction inhibitors, dose response, biochemical, TR-FRET (AID 855); type: functional;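 also: potency for disrupting eIF4E binding to eIF4GI seen as loss of FRET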
[8] = AlphaScreen signal interference compounds, dose response, artefact control for ARNT-TACC3 interaction inhibitor project, biochemical, luminescence, cherry-pick (AID 651705); type: functional;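 also: AlphaScreen bead proximity signal that flags compounds interfering with the detection technology; potency reflects signal decrease which marks the compound as an assay artifact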
[9] = target: T3, Neuropeptides B/W receptor type 1 (Homo sapiens, UniProt P48145); assay: GPR7 antagonist potency, late-stage follow-up, cell-based, fluorescence, dose response, set 5 (AID 588566); type: functional
T3 sequence (P48145 whole entry): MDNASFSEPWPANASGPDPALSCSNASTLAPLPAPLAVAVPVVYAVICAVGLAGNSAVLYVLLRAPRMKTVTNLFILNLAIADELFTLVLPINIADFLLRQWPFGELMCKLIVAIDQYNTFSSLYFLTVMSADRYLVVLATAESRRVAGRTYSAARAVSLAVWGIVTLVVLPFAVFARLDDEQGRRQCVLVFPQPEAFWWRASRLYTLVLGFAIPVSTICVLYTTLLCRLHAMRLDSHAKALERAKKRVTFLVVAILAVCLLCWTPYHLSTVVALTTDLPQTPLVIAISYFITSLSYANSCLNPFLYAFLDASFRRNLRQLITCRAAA

[10] = target: T4, Melanin-concentrating hormone receptor 1 (Homo sapiens, UniProt Q99705); assay: Late-stage fluorescence-based counterscreen for antagonists of the G-protein coupled receptor 7 (GPR7): cell-based dose response assay to identify antagonists of the melanin-concentrating hormone receptor 1 (MCHR1) Set 5.; type: functional
[11] = target: T3, Neuropeptides B/W receptor type 1; assay: GPR7 antagonist potency, late-stage follow-up, cell-based, fluorescence, dose response, set 6 (AID 588583); type: functional
[12] = target: T4, Melanin-concentrating hormone receptor 1; assay: Late-stage fluorescence-based counterscreen for antagonists of the G-protein coupled receptor 7 (GPR7): cell-based dose response assay to identify antagonists of the melanin-concentrating hormone receptor 1 (MCHR1) Set 6.; type: functional

T4 sequence (Q99705 whole entry): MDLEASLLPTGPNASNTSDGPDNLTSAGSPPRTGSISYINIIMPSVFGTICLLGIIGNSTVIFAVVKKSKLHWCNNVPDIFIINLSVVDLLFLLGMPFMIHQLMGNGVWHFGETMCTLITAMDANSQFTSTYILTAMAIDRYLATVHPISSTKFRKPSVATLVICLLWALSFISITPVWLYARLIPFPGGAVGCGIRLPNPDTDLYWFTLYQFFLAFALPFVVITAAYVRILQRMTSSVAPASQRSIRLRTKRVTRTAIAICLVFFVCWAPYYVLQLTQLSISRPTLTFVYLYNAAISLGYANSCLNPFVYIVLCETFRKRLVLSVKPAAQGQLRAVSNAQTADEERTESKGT
DNA dC->dU-editing enzyme APOBEC-3A, sequence (P31941 whole entry): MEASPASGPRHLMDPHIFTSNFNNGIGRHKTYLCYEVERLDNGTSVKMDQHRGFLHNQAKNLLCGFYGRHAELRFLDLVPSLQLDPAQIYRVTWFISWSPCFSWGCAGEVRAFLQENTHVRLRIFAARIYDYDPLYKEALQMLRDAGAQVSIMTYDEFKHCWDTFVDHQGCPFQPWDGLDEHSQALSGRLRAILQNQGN
DNA dC->dU-editing enzyme APOBEC-3G, sequence (Q9HC16 whole entry): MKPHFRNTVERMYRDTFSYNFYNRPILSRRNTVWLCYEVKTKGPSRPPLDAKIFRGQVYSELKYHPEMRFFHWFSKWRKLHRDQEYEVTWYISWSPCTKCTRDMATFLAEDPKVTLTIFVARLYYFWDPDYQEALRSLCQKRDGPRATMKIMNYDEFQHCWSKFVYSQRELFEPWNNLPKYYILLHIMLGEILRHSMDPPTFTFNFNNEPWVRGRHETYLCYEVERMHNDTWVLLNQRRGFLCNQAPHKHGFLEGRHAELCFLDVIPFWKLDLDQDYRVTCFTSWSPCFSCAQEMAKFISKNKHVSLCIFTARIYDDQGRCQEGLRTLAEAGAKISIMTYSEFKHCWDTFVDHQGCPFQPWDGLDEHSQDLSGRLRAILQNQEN
Ras and Rab interactor 1/Tyrosine-protein kinase ABL1, sequence (P00519 whole entry): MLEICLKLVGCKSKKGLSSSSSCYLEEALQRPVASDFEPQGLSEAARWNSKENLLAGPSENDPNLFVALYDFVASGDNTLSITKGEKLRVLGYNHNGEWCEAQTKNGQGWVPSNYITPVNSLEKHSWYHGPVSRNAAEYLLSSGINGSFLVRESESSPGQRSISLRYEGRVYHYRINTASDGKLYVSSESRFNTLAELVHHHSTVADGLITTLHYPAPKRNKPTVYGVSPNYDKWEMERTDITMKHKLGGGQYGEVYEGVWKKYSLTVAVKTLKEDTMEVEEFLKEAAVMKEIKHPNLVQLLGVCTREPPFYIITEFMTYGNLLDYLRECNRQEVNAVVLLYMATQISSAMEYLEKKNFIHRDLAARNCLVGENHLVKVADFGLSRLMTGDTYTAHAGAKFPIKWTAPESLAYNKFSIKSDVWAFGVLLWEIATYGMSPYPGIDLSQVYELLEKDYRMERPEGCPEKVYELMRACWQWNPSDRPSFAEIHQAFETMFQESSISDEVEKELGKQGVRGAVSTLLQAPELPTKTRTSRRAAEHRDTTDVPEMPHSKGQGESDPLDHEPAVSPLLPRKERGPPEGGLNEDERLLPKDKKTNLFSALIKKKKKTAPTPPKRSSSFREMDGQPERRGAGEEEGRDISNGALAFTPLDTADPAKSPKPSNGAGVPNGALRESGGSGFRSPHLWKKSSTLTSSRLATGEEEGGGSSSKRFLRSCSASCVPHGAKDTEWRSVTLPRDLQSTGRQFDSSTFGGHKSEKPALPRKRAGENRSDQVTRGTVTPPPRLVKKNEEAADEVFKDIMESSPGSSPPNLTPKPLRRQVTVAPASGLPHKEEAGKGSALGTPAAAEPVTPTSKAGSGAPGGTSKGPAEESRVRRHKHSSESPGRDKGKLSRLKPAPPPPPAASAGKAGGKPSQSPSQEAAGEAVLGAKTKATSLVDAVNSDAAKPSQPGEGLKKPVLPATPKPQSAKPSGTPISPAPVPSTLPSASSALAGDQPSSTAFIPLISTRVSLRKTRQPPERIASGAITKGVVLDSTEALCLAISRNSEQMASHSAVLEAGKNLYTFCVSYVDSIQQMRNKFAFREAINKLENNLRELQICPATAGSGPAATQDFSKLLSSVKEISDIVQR
Ras and Rab interactor 1/Tyrosine-protein kinase ABL1, sequence (Q13671 whole entry): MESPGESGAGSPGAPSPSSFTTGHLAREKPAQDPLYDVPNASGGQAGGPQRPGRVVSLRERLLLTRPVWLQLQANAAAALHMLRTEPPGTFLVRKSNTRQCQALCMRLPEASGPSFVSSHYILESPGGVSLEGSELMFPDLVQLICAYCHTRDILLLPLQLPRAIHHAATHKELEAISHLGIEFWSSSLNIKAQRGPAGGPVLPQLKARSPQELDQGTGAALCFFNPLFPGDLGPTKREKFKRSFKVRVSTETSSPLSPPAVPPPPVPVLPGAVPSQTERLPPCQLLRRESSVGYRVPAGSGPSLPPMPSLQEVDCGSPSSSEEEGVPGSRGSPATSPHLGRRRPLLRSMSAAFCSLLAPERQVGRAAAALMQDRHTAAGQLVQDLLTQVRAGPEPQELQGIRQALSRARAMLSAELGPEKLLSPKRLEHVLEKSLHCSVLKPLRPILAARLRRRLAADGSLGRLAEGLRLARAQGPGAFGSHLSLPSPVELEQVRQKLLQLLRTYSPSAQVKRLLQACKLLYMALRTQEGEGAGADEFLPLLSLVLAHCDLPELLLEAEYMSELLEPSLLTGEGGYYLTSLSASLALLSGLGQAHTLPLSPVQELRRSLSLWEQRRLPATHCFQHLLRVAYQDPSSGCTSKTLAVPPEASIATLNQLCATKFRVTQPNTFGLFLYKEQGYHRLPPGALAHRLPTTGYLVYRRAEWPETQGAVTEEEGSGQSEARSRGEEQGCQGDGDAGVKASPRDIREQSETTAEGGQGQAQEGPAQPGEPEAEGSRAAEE
Eukaryotic translation initiation factor 4E, sequence (P63073 whole entry): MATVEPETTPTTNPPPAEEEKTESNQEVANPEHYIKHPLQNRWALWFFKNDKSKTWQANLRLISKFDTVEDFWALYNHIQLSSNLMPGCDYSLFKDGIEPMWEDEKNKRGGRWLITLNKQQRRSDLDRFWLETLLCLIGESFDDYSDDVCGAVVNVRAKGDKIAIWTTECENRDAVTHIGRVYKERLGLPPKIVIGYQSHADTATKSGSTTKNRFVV

IC50 [9]: 1.74 µM (active)
IC50 [10]: 15 µM (inactive)
Compound: CCOC(=O)C(C#N)c1ccnn(Cc2cccc3ccccc23)c1=O (centres undefined)

IC50 [9]: 0.325 µM (active)
IC50 [10]: 0.794 µM (active)
Compound: N#CC(c1ccsc1)c1c(Cl)cnn(Cc2cccc3ccccc23)c1=O (centres undefined)

Continued, compound first:

Compound: CCN1CCN(c2ccc(NC(=O)c3cc4ccccc4cc3OC)cc2C)CC1
AC50 [1]: 18.2 µM (active)
IC50 [2]: 4.24 µM (active)
AC50 [3]: 36.5 µM (active)
IC50 [4]: 6.67 µM (active)
AC50 [5]: 52.2 µM (active)

Compound: CCOC(=O)CCCCC(=O)c1[nH]c(O)nc1CN1CCOCC1
IC50 [6]: 0.548 µM (active)

Compound: CC(C)(C)C1=Nn2c(nnc2-c2ccccn2)SC1
IC50 [7]: > 64 µM (inactive)
AC50 [8]: 107 µM (active)

Compound: N#CC(c1ccccn1)c1c(Cl)cnn(Cc2cccc3ccccc23)c1=O (centres undefined)
IC50 [11]: 0.564 µM (active)
IC50 [12]: 0.564 µM (active)

Source: ChEMBL document CHEMBL1201862, “PubChem BioAssay data set” (2004)
